From paper PMC4501006, “Preliminary Characterization and In Vivo Studies of Structurally Identical ^18F- and ^125I-Labeled Benzyloxybenzenes for PET/SPECT Imaging of β-Amyloid Plaques” (Scientific Reports, 2015)

Assays:
[1] = Dynamic microPET/CT imaging in normal ICR mice; format: in vivo; settings: for brain radioactivity retention from PET time-activity curve: at 60 min; for muscle and bone uptake, standardized uptake value (SUV): entire 60 min PET scan
Procedure: To further assess the pharmacokinetics of these two couple of radiolabeled benzyloxybenzenes, following dynamic PET/CT and SPECT/CT scans were conducted in normal ICR mice. High contrast PET and SPECT images implied that all the four radiolabeled benzyloxybenzenes can penetrate the BBB to a great degree and washout from the normal brain regions (Fig. 7a). […] Sustained low muscle and bone uptakes were observed during the entire 60 min scans with standardized uptake values (SUV) of approximate 0.7. […] These PET imaging data well matched the in vivo biodistribution results.
Four normal ICR mice (20–22 g, male) were used for dynamic microPET/CT and microSPECT/CT imaging. The whole-body PET/CT scans were performed using Siemens Inveon device (Siemens Medical Solutions), while SPECT/CT scans were conducted with Mediso nanoScan SPECT/CT scanner (Mediso Medical Imaging System). All mice were anesthetized with 2% isoflurane. Dynamic PET and SPECT scans from 0 to 60 min were started immediately after intravenous injection of [^18F]7a (injected dose, 2.2 MBq), [^18F]12a (injected dose, 4.1 MBq), [^125I]7a (injected dose, 25 MBq), and [^125I]12a (injected dose, 48 MBq), respectively. PET images were reconstructed using three-dimensional ordered subsets expectation maximization (3D OSEM) algorithm, and 3D iterative algorithm was used for SPECT image reconstruction. Time frames for PET imaging were 20 × 60 s and 10 × 240 s, and that for SPECT imaging were 20 × 180 s. Regions of interests (ROIs) were manually drawn on the whole brain, heart, liver, muscle and bone using the CT templates and then transferred to corresponding coregistered PET images. SUVs, injected dose and body weight normalized and decay corrected radioactivity concentration, were calculated for all ROIs. TACs were calculated from this.

Aβ plaques = Aβ plaques (Homo sapiens, UniProt P05067); assay: Ex vivo autoradiography and brain radioactivity retention, Tg versus wild-type mouse; format: in vivo, Tg mouse (APPswe/PSEN1); settings: 30 min post-injection
Aβ plaques, sequence (P05067 672-711 limits assumed): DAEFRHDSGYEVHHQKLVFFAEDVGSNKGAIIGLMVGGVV
Procedure: To further characterize the in vivo Aβ imaging capabilities, we conducted ex vivo autoradiographic studies with [^125I]7a which combined high binding affinity, high initial brain uptake, fast clearance and excellent in vivo biostability in the brain. [^125I]7a (1 mCi, 200 μL) was injected intravenously into a Tg mouse (APPswe/PSEN1, male, 27 months old) and an age-matched wild-type mouse (C57BL6, male). Thirty minutes after injection, the brains were removed, weighed and the radioactivity was counted. Then the brains were frozen and sectioned for ex vivo autoradiography. […] Ex vivo autoradiography was performed on a transgenic mouse (APPswe/PSEN1, male, 27 months old) and a wild-type mouse (C57BL6, male, 27 months old). A saline solution (200 μL, 10% EtOH) of 1 mCi of [^125I]7a was injected into the mice via the tail vein. The mice were sacrificed by decapitation at 30 min post-injection, and the brains were immediately removed, weighed and the radioactivity was counted. Frozen brain sections of 20 μm were cut and exposed to a phosphorus plate (Perkin-Elmer, USA) for one week. Ex vivo autoradiographic images were obtained using a phosphor imaging system (Cyclone, Packard). Subsequently the same sections were stained with ThS to confirm the presence and location of Aβ plaques.

| brain uptake from PET time-activity curve ([1]; at 7 min) | brain radioactivity retention from PET time-activity curve [1] | muscle and bone uptake, standardized uptake value (SUV) [1] | higher brain radioactivity retention in Tg mouse than in wild-type control mouse (Aβ plaques; i.v., 1 mCi) | brain uptake from PET time-activity curve ([1]; at 8 min) | SMILES | ex vivo autoradiography, labeling of Aβ plaques (Aβ plaques; Tg mouse brain sections) |
| --- | --- | --- | --- | --- | --- | --- |
| 6.74 % ID/g | 3.47 % ID/g | ~0.7 |  |  | [18F]CCOc1ccc(COc2ccc(I)cc2)cc1 [[^18F]12a] |  |
|  |  |  | 40% |  | FCCOc1ccc(OCc2ccc([125I])cc2)cc1 [[^125I]7a] | clear labeling of Aβ plaques in the Tg mouse brain |
|  | 3.08 % ID/g | ~0.7 |  | 5.96 % ID/g | [18F]CCOc1ccc(OCc2ccc(I)cc2)cc1 [[^18F]7a] |  |
